Reference: patent publication US7375088B2, “Polyene polyketides, processes for their production and their use as a pharmaceutical” (Thallion Pharmaceuticals Inc., priority 2003, dated 2008)
Converted amounts (≈) assume the structure as drawn. Read-outs that look alike come from different tables or passages of the source.

How the values were obtained:
[1] = test system: Candida lusitaniae ATCC 200953; experiment: MIC broth microdilution assay; conditions: Clavispora lusitaniae
Protocol: Test compound preparation: The test article was prepared as 100× stock solutions in DMSO, with concentrations ranging from 3.2 mg/ml to 0.0625 mg/ml (a two-fold dilution series over 10 points). The first dilution (3.2 mg/ml) was prepared by resuspending 0.5 mg of each test article in 156.25 μl of DMSO. The stock is then serially diluted by two-fold increments to obtain the desired concentration range.
Inoculum preparation: For fungal strains, the inoculum was prepared as follows. From an overnight culture in Yeast Media broth, cell density was adjusted in 0.85% saline to 0.5 McFarland. This procedure yielded a stock suspension of about 5×10^6 cells/ml. Following thorough vortexing, a working suspension was prepared by diluting the stock 1:50 in RPMI 1640, and then further diluting it 1:20 with RPMI 1640 to obtain the 2× test inoculum (about 5×10^3 cells/ml). For filamentous fungi, the inoculum was prepared as follows. […]
50 μl of the final cell dilution (yeast, filamentous fungi or bacteria) of each indicator strain was added to each corresponding well of the microplate containing 50 μl of diluted drug or media alone. […] MIC readings were determined at 24 and 48 hrs for the Candida and Aspergillus species, and at 48 and 72 hrs for Cryptococcus neoformans. MIC readout for each indicator was determined as the lowest concentration of test compound resulting in total absence of growth.

[2] = test system: Aspergillus fumigatus; experiment: Disk diffusion assay (MEC and zone of inhibition); type: cell-based
[3] = test system: 60 different human tumor cell lines; experiment: NCI in vitro antiproliferative screen, 60 human tumor cell lines (SRB, GI50); type: cell-based
Protocol: In Vitro antipoliferative study of Compound 2a was performed by the National Cancer Institute (National Institutes of Health, Bethesda, Md., USA) against a panel of cancer cell lines in order to determine the concentrations needed to obtain a 50% inhibition of cell proliferation (IC50). The operation of this unique screen utilizes 60 different human tumor cell lines, representing leukemia, melanoma, and cancers of the lung, colon, brain, ovary, breast prostate and kidney. Compound 2(a) was provided as a lyophilized powder with an estimated purity of 90+%. The compound was stored at −20° C. until day of use.
The human tumor cell lines of the cancer-screening panel were grown in RPMI 1640 medium containing 5% fetal bovine serum and 2 mM L-glutamine. For a typical screening experiment, cells were inoculated into 96 well microtiter plates in 100 μl at plating densities ranging from 5000 to 40,000 cells/well depending on the doubling time of individual cell lines (Table 8). After cell inoculation, the microtiter plates were incubated at 37° C., under 5% CO2, 95% air and 100% relative humidity for 24 hours prior to addition of the experimental drugs.
After 24 hours, two plates of each cell line were fixed in situ with TCA, to represent a measurement of the cell population for each cell line at the time of drug addition (Tz). Compound 2(a) was solubilized in dimethyl sulfoxide at 400-fold the desired final maximum test concentration and stored frozen prior to use. At the time of drug addition, an aliquot of frozen concentrate was thawed and diluted to twice the desired final maximum test concentration with complete medium containing 50 μg/ml gentamicin. Additional four, serial dilutions were made to provide a total of five drug concentrations plus control. Aliquots of 100 μl of these different drug dilutions were added to the appropriate microtiter wells already containing 100 μl of medium, resulting in the required final drug concentrations (2.5×10^−5 M to 2.5×10^−9 M).
Following drug addition, the plates were incubated for an additional 48 hours at 37° C., 5% CO2, 95% air, and 100% relative humidity. For adherent cells, the assay was terminated by the addition of cold TCA. Cells were fixed in situ by the gentle addition of 50 μl of cold 50% (w/v) TCA (final concentration, 10% TCA) and incubation for 60 minutes at 4° C. The supernatant was discarded, and the plates were washed five times with tap water and air-dried. Sulforhodamine B (SRB) solution (100 μl) at 0.4% (w/v) in 1% acetic acid was added to each well, and plates were incubated for 10 minutes at room temperature. After staining, unbound dye was removed by washing five times with 1% acetic acid and the plates were air-dried. Bound stain was subsequently solubilized with 10 mM trizma base, and the absorbance was read on an automated plate reader at a wavelength of 515 nm. For suspension cells, the methodology was the same except that the assay was terminated by fixing settled cells at the bottom of the wells by gently adding 50 μl of 80% TCA (final concentration, 16% TCA).
The growth inhibitory power of compound 2(a) was measured by NCl utilizing the GI50 value, rather than the classical IC50 value. The GI50 value emphasizes the correction for the cell count at time zero and, using the seven adsorbance measurements [time zero (Tz), control growth (C), and the test growth in the presence of drug at each of the five concentration levels (Ti)], GI50 is calculated as [(Ti−Tz)/(C−Tz)×100=−50. which is the drug concentration resulting in a 50% reduction in the net protein increase (as measured by SRB staining) in control cells during the drug incubation.

CC(C=CCCC=CC=CC=CC=CC(=O)NC1=C(O)CCC1=O)C(O)C(C)C(O)C=CC=CC=CC=CC=CCC(OC1OC(C)C(O)C(O)C1O)C(C)C(=O)CC(O)CC(O)CC(O)C=CCC(O)CC(O)CC(O)CC(O)C=CCC(O)CC(O)CCCN (centres unmarked) [Compound 2(a), 56-Amino-15,17,33,35,37,41,43,45,47,51,53-undecahydroxy-14,16,30-trimethyl-31-oxo-29-(3,4,5-trihydroxy-6-methyl-tetrahydro-pyran-2-yloxy)-hexapentaconta-2,4,6,8,12,18,20,22,24,26,38,48-dodecaenoic acid (2-hydroxy-5-oxo-cyclopent-1-enyl)-amide]
MIC ([1]; ATCC200953, 24 h): 4 µg/mL (≈ 3.08 µM) | MIC ([1]; ATCC200953, 48 h): 4 µg/mL (≈ 3.08 µM) | antifungal activity in disk diffusion assay [2]: active | ZOI (zone of inhibition of fungal growth calculated for each MEC) ([2]; at the MEC, 24 hours of incubation): 2.7 mm | MEC (minimum effective concentration) ([2]; disk diffusion, 24 hours of incubation): 2.5 µg/mL | GI50 ([3]; 786-0, 48 h, 786-0, Renal cancer, read-out: GI50): 3.07 µM | GI50 ([3]; 48 h, MDA-MB-, Breast cancer): 3.38 µM | GI50 ([3]; 48 h, PC-3, Prostate cancer, read-out: GI50): 2.66 µM | GI50 ([3]; 48 h, all cell lines of the NCI screening panel, 48 hours drug incubation): < 10 µM | GI50 ([3]; A498, 48 h, A498, Renal cancer, read-out: GI50): 4.82 µM | GI50 ([3]; A549, 48 h, A549/ATCC, Non-small cell lung cancer, read-out: GI50): 4.09 µM | GI50 ([3]; ACHN, 48 h, ACHN, Renal cancer, read-out: GI50): 2.96 µM | GI50 ([3]; BT-549, 48 h, BT-549, Breast cancer, read-out: GI50): 4.59 µM | GI50 ([3]; CAKI-1, 48 h, CAKI-1, Renal cancer, read-out: GI50): 2.99 µM | GI50 ([3]; COLO 205, 48 h, COLO 205, Colon cancer, read-out: GI50): 5 µM | GI50 ([3]; DU-145, 48 h, DU-145, Prostate cancer, read-out: GI50): 3.78 µM | GI50 ([3]; EKVX, 48 h, EKVX, Non-small cell lung cancer, read-out: GI50): 5.87 µM | GI50 ([3]; HCT-15, 48 h, HCT-15, Colon cancer, read-out: GI50): 3.25 µM | GI50 ([3]; HCT-116, 48 h, HCT-116, Colon cancer, read-out: GI50): 4.18 µM | GI50 ([3]; HOP-62, 48 h, HOP-62, Non-small cell lung cancer, read-out: GI50): 6.83 µM | GI50 ([3]; HT-29, 48 h, HT29, Colon cancer, read-out: GI50): 6.36 µM | GI50 ([3]; IGROV-1, 48 h, IGROV1, Ovarian cancer, read-out: GI50): 2.95 µM | GI50 ([3]; K562, 48 h, K-562, Leukemia, read-out: GI50): 9.18 µM | GI50 ([3]; KM12, 48 h, KM12, Colon cancer, read-out: GI50): 2.76 µM | GI50 ([3]; LOX IMVI, 48 h, LOX IMVI, Melanoma, read-out: GI50): 3.73 µM | GI50 ([3]; M14, 48 h, M14, Melanoma, read-out: GI50): 4.15 µM | GI50 ([3]; MCF7, 48 h, MCF7, Breast cancer, read-out: GI50): 4.22 µM | GI50 ([3]; MDA-MB-435, 48 h, MDA-MB-435, Breast cancer, read-out: GI50): 3.26 µM | GI50 ([3]; MOLT-4, 48 h, MOLT-4, Leukemia, read-out: GI50): 5.57 µM | GI50 ([3]; Malme-3M, 48 h, MALME-3M, Melanoma, read-out: GI50): 2.4 µM | GI50 ([3]; NCI-H23, 48 h, NCI-H23, Non-small cell lung cancer, read-out: GI50): 4.25 µM | GI50 ([3]; NCI-H226, 48 h, NCI-H226, Non-small cell lung cancer, read-out: GI50): 3.1 µM | GI50 ([3]; NCI-H322M, Non-small cell lung cancer, 48 h, read-out: GI50): 3.48 µM | GI50 ([3]; NCI-H460, 48 h, NCI-H460, Non-small cell lung cancer, read-out: GI50): 3.83 µM | GI50 ([3]; NCI-H522, 48 h, NCI-H522, Non-small cell lung cancer, read-out: GI50): 2.8 µM | GI50 ([3]; NCI/ADR-RES, 48 h, NCI/ADR-RES, Breast cancer, read-out: GI50): 4.76 µM | GI50 ([3]; OVCAR-3, 48 h, OVCAR-3, Ovarian cancer, read-out: GI50): 3.4 µM | GI50 ([3]; OVCAR-4, 48 h, OVCAR-4, Ovarian cancer, read-out: GI50): 4.48 µM | GI50 ([3]; OVCAR-5, 48 h, OVCAR-5, Ovarian cancer, read-out: GI50): 4 µM | GI50 ([3]; OVCAR-8, 48 h, OVCAR-8, Ovarian cancer, read-out: GI50): 4.34 µM | GI50 ([3]; RXF 393, 48 h, RXF 393, Renal cancer, read-out: GI50): 1.2 µM | GI50 ([3]; SF-268, 48 h, SF-268, CNS cancer, read-out: GI50): 3.64 µM | GI50 ([3]; SF-295, 48 h, SF-295, CNS cancer, read-out: GI50): 3.91 µM | GI50 ([3]; SK-MEL-2, 48 h, SK-MEL-2, Melanoma, read-out: GI50): 4.34 µM | GI50 ([3]; SK-MEL-5, 48 h, SK-MEL-5, Melanoma, read-out: GI50): 4.16 µM | GI50 ([3]; SK-MEL-28, 48 h, SK-MEL-28, Melanoma, read-out: GI50): 6.75 µM | GI50 ([3]; SK-OV-3, 48 h, SK-OV-3, Ovarian cancer, read-out: GI50): 7.94 µM | GI50 ([3]; SNB-19, 48 h, SNB-19, CNS cancer, read-out: GI50): 5.58 µM | GI50 ([3]; SNB-75, 48 h, SNB-75, CNS cancer, read-out: GI50): 3.87 µM | GI50 ([3]; SW-620, 48 h, SW-620, Colon cancer, read-out: GI50): 5.35 µM | GI50 ([3]; T47D, 48 h, T-47D, Breast cancer, read-out: GI50): 6 µM | GI50 ([3]; TK-10, 48 h, TK-10, Renal cancer, read-out: GI50): 3.32 µM | GI50 ([3]; U-251, 48 h, U251, CNS cancer, read-out: GI50): 3.65 µM | GI50 ([3]; UACC-62, 48 h, UACC-62, Melanoma, read-out: GI50): 2.68 µM | GI50 ([3]; UACC-257, 48 h, UACC-257, Melanoma, read-out: GI50): 3.74 µM | GI50 ([3]; UO-31, 48 h, UO-31, Renal cancer, read-out: GI50): 3.65 µM
